Source: publication PMC6972728, “Anthranilamide-based Short Peptides Self-Assembled Hydrogels as Antibacterial Agents” (Scientific Reports, 2020)
Square brackets hold non-standard residues; d marks the D form. Peptide text beside a SMILES is read from it. * marks the point of attachment. 2Abz = Nc1ccccc1C(=O)O; Bz = O=C(c1ccccc1)*

Legend:
S. aureus = details: cited from earlier work
Experimental: With a complete understanding of the hydrogel ultrastructure now in-hand, the antibacterial activity of N-acetyl 1, N-benzoyl 2 and N-naphthoyl 3 was assessed, in order to evaluate the effect of increased hydrophobicity on antibacterial activity. Further, the stiffest (BA 9) and softest (methyl 6) of the remaining gelators were tested to discern the relationship of hydrogel stiffness to antimicrobial activity. Staphylococcus aureus, the most common causative organism for skin and soft tissue infections, was chosen as the bacterial strain to assess the hydrogels antibacterial activity. Thes ...

[1] = not given; remark: listed apart in the source
HEK293T cells = experiment: Contact cytotoxicity of hydrogels, Alamar Blue colorimetric assay; assay type: cell-based; details: hydrogels at 0.25, 0.5 and 1% (w/v), cells seeded on hydrogel, 24 h, repeated at least three times
Experimental: With this in mind, the cytotoxicity of lead candidates N-benzoyl 2, N-naphthoyl 3, and BA 9 (para) from the antibacterial studies were examined against HEK293T cells, as a robust mammalian cell model. As the antibacterial activity of the 2, 3 and 9 was evaluated in the gel phase, contact cytotoxicity of hydrogels at concentrations of 0.25, 0.5, and 1% (w/v) was examined.
Similar to previously reported method, cytotoxicity measurement was performed using an Alamar Blue colorimetric assay on HEK293T cells. HEK293T cells were passaged using standard cell culture procedures. Cells were detached with trypsin and centrifuged (1000 rpm for 3 min). After supernatant was removed, the cells were re-suspended in Dulbecco’s Modified Eagle Medium (DMEM) at a concentration of 60,000 cells/mL. Cells were seeded onto hydrogels at a concentration of 6,000 cells/well. Hydrogels were prepared as described above and 100 µL cast into the wells of a 96 well plate in triplicate. After incubating overnight, 100 µL media was added to the set hydrogels and incubated overnight. The following day, excess media was aspirated and cells seeded atop the hydrogels as above. After incubation for 24 hours, 10 µL Alamar Blue was added to each well, followed by further incubation for another 4 hours. […] BioRad Benchmark plate reader was used to measure the absorbance at 570 nm and 596 nm. […]

[2] = Temperature dependent CD spectroscopy (thermal denaturation); assay type: physicochemical; details: temperature increased from 25 °C to 60 °C; diluted hydrogel
Experimental: In addition, CD spectroscopy was also used as a tool to investigate gradual thermal denaturation of anthranilamide-based short peptides.
The anthranilamide-based hydrogels were prepared at 0.8% (w/v) and were diluted 10 times before being transferred into a 0.5 mm path length cuvette. Meanwhile, for the concentration dependence, the hydrogel made from N-benzoyl 2 at 0.8% (w/v) was diluted to make up concentrations ranging from 0.058 mM – 0.470 mM before being transferred into a 0.5 mm path length cuvette.
CD spectrum were obtained using a ChirascanPlus CD spectrometer (Applied Photophysics, UK) scanning wavelengths of 180–500 nm with a bandwidth of 1 nm, 0.6 s per point, and step of 1 nm[22]. The outcome of three experiments were then averaged and plotted into a single plot value. The high tension (HT) value of each experiment was maintained to be below 600 mV (Fig. S17).

[3] = Hydrogel formation, critical gel concentration and gelation time by vial inversion test; assay type: physicochemical
Source text: Several triggers such as physical stimuli, pH switch, solvent switch, or a combination of these, were employed to assess the self-assembly of compounds 1–11 in water. Initially, hydrogel formation of compounds 1–11, at 1% (w/v), was investigated using a combination of pH switch and temperature switch. The compounds were heated in dilute sodium hydroxide (NaOH) in order to deprotonate the carboxylic acid group at the C-terminus of the short peptides.
Compared to a mineral acid, GdL promotes the formation of a homogenous hydrogel due to its slow hydrolysis and fast dissolution rate in water[39],[40].
In addition, the effect of salt which can induce gelation in basic peptide solutions[41], due to high ionic was also investigated for peptides 1–11.
In a final attempt to induce gelation in peptides 4, 7 and 11, a solvent switch method using dimethyl sulfoxide (DMSO), methanol, or ethanol as co-solvent was employed[42]–[47]. […] Given that these hydrogels were designed with antibacterial applications in mind, due to the potential toxicity concerns arising from the use of organic co-solvents, further characterisation of peptides 4, 7 and 11 was not carried out.
The critical gel concentration (CGC) represents the minimum amount of the anthranilamide-based short peptide required to form a hydrogel. The CGC of anthranilamide-based short peptides were qualitatively assessed by varying the short peptide concentrations and conducting vial inversion test[48]–[50]. […] Here, gelation time represents the time required for these short peptides, at 1% (w/v), to form self-supporting hydrogels as assessed through the vial inversion test.
To a pre-weighed compound in a glass vial, 1 M NaOH (2–8 molar equiv.) was added followed by addition of Mili-Q water. The suspension was then heated and vortexed vigorously for 15 minutes to completely dissolve the compound. In the case of N-acetyl 1, N-benzoyl 2, N-naphthoyl 3, fluoro 5 and methyl 6, these clear solutions were left to cool to room temperature for 1–30 minutes. GdL (2–3 equiv.) was added to a solution of compounds 7–11 in NaOH. […]

Which amide I peak (disordered coil) does the source give for `CC(=O)Nc1ccccc1C(=O)N[C@@H](Cc1ccccc1)C(=O)N[C@@H](Cc1ccccc1)C(=O)O` (Ac-[2Abz]-Phe-Phe-OH) here?
The amide I peak (disordered coil) was 1650 cm⁻¹.

With `[Na+].[OH-]` [NaOH, sodium hydroxide] as the molecule, how does the MIC (S. aureus) read?
The MIC was 7500 µg/mL.

What does the source list for `O=C(Nc1ccccc1C(=O)N[C@@H](Cc1ccccc1)C(=O)N[C@@H](Cc1ccccc1)C(=O)O)c1ccccc1` [compound 2] ({Bz-2Abz}-Phe-Phe-OH)?
Gʹ (stiffness) [1]: 16.9 kPa; Cytotoxicity towards HEK cells (HEK293T cells): moderate cytotoxicity; Thermal stability of ß-sheet secondary structure (CD) [2]: no significant conformational changes

With `O=C(Nc1ccccc1C(=O)N[C@@H](Cc1ccccc1)C(=O)N[C@@H](Cc1ccccc1)C(=O)O)c1ccc2ccccc2c1` [compound 3] as the molecule, how does the Gʹ (stiffness) [1] read?
Its Gʹ (stiffness) is 5.7 kPa.

What about the “Cytotoxicity towards HEK cells” value (HEK293T cells) of the same molecule?
Its value is “poor cell viability”.

For `O=C(N[C@@H](Cc1ccccc1)C(=O)N[C@@H](Cc1ccccc1)C(=O)O)c1ccccc1NS(=O)(=O)c1cccc2ccccc12` [compound 4], which Hydrogel formation outcome ([3]; 1% (w/v), heated in dilute NaOH, cooled to room temperature (pH switch and temperature switch), up to 48 hours) is on record?
The Hydrogel formation outcome was “remained as clear solutions”.

And the Hydrogel formation outcome ([3]; 3 equivalents of GdL added to basic solution)?
The Hydrogel formation outcome was “white precipitate”.

What about the Hydrogel formation outcome ([3]; solvent switch, DMSO: water at 1% w/v) of the same molecule?
The Hydrogel formation outcome was “gels were observed only for the first 5 minutes”.
